By IC50 is commonly meant the concentration that inhibits the measured activity by half. By Ki is commonly meant the equilibrium dissociation constant of an inhibitor or competing ligand from its target.

For assay [1], the system named is B. burgdorferi strain N40. Put plainly: microbe, parasite or virus in culture. Format: cell-based, Borrelia burgdorferi. The settings on record: Borreliella burgdorferi, N40; bioluminescence; stated after the 72 h results, time not given explicitly; read-out: IC50 (loss of B. burgdorferi vitality). The method, then: B. burgdorferi N40 strain carrying a firefly luciferase gene (Bbluc), which is a derivative of the N40D10/E9 clone, was used in this study and is labeled as N40 throughout. N40 was cultured at 33 °C in Barbour-Stoenner-Kelly-II (BSK-II) medium supplemented with 6% rabbit serum (BSKII-RS). Bacterial counts were determined under 400× magnification using a hemocytometer and a dark field microscope.
The luciferase expressing B. burgdorferi N40 strain was grown to a density of ~10^8 spirochetes/mL and divided into two aliquots. One aliquot was incubated at 60 °C for 30 min to kill the spirochetes. […] The culture was mixed with the substrate by shaking in the dark, incubated at 37 °C for 5 min in a Spectramax M2 microplate reader (Molecular Devices, San Jose, CA, USA) and the bioluminescence measured. […]
Nucleosides and nucleoside analogs were prepared as sterile 1 mM stock solutions in distilled water (MSeA, IADO, FSBA, and dEt-ImmA) or in DMSO (PurTA). […] Photon emission due to luciferase activity was measured at three time points, after: (a) 24 h, (b) 72 h, and (c) 7 days of treatments to observe the effect of inhibitors on B. burgdorferi culture. At the end of each time point, bioluminescence was measured as described above. […]

The target in the next assay is Pfs (Borreliella burgdorferi, UniProt O50162). In words: MTAN inhibition constants (competitive inhibition of MTA hydrolysis). It is filed as biochemical, Borrelia burgdorferi. The settings on record: MTA 100 µM, inhibitor 0 to 100 µM, read-out: Ki (inhibition constant). As for the experimental part:
(§1) For the other compounds, inhibition constants (Ki’s) were determined as previously described, using an MTA concentration of 100 µM and varying the inhibitor concentration from 0 to 100 µM. The inhibited velocity (Vo’) and uninhibited velocity (Vo) values were determined, and the ratio of Vo’/Vo plotted as a function of inhibitor concentration. Ki values were calculated from these plots by fitting the data to the equation for competitive inhibition using GraphPad Prism:(2) Vo^′/Vo=Km+[S]/Km+[S]+(Km[I]/Ki)
(§2) The enzyme inhibition constant and delayed onset inhibition constant for dET-ImmA was previously reported.

The target in another assay is MtnN (Borreliella burgdorferi, UniProt O50860). The assay is described as above. It is filed as biochemical, Borrelia burgdorferi. The settings on record: MTA 100 µM, inhibitor 0 to 100 µM, read-out: Ki (inhibition constant). As for the experimental part:
as §1, §2

The target of the next assay is Bgp (Borreliella burgdorferi, UniProt Q9F952). Described as above. Format: biochemical, Borrelia burgdorferi. To be noted: MTA 100 µM, inhibitor 0 to 100 µM, read-out: Ki (inhibition constant). As for the experimental part: The inhibited velocity (Vo’) and uninhibited velocity (Vo) values were determined, and the ratio of Vo’/Vo plotted as a function of inhibitor concentration. Ki values were calculated from these plots by fitting the data to the equation for competitive inhibition using GraphPad Prism:(2) Vo^′/Vo=Km+[S]/Km+[S]+(Km[I]/Ki)
Sequence of Bgp (Q9F952 entry or part of it): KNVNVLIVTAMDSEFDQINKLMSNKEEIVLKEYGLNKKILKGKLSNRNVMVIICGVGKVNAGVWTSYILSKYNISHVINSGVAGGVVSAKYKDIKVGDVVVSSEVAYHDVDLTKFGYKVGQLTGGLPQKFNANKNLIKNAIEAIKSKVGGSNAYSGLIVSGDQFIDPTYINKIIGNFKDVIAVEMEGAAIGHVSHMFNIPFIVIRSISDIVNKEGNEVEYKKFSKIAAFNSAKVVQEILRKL

Sequence of MtnN (O50860 entry or part of it): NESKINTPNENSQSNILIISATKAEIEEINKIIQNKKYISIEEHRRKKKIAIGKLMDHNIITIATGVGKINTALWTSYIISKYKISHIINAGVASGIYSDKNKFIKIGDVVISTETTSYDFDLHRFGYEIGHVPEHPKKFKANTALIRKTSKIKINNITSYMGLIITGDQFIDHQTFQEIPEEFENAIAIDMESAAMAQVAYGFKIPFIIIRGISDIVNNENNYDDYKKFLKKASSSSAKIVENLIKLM
Sequence of Pfs (O50162 entry or part of it): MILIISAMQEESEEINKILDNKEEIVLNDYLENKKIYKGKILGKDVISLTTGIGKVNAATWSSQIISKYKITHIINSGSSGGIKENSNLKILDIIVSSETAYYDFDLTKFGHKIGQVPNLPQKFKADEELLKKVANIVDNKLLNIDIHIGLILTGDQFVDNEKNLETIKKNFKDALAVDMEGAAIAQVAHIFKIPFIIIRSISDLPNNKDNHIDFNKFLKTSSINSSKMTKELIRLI

On to `Nc1ncnc2c1ncn2[C@@H]1O[C@H](CI)[C@@H](O)[C@H]1O` [IADO, 5′-deoxy-5′-iodoadenosine], for which the IC50 in assay [1] was approximately 1000 nM. The Ki on Pfs was 900 nM; at MtnN, 2470 nM; at Bgp it was 630 nM.
